Measurements: the CheMixHub viscosity set

Experiment: xn = mol fraction of the nth substance listed

COC(=O)c1ccccc1 + C1CCOC1
viscosity [mPa·s], 100 kPa
Details	x1 = 0.0689	x1 = 0.1417	x1 = 0.2202	x1 = 0.303	x1 = 0.3932	x1 = 0.493	x1 = 0.6018	x1 = 0.7225	x1 = 0.8535
303.15 K	0.496	0.562	0.638	0.727	0.829	0.951	1.096	1.262	1.446
308.15 K	0.484	0.546	0.616	0.699	0.79	0.904	1.032	1.181	1.343
313.15 K	0.443	0.505	0.567	0.641	0.729	0.83	0.943	1.078	1.22

Oc1cccc(Cl)c1 + CCCCCOC(C)=O
Details	viscosity [mPa·s]
298.15 K, 101 kPa, x1 = 0.5	1.244

CCOC(=O)CCl + CCCCCC
viscosity [mPa·s], 101.33 kPa
Details	x1 = 0.0977	x1 = 0.2029	x1 = 0.3028	x1 = 0.4001	x1 = 0.4982	x1 = 0.6039	x1 = 0.7027	x1 = 0.8032	x1 = 0.9022
298.15 K	0.342	0.375	0.416	0.465	0.524	0.602	0.683	0.787	0.923
303.15 K	0.326	0.357	0.396	0.441	0.495	0.566	0.641	0.739	0.861
308.15 K	0.309	0.339	0.377	0.417	0.466	0.53	0.6	0.69	0.8
